Results: ChEMBL document CHEMBL1201862, “PubChem BioAssay data set” (2004)
Active and inactive are the calls of the source.

Tests used:
[1] = target: T1, Apoptotic protease-activating factor 1 (Homo sapiens, UniProt O14727); assay: SAR analysis of small molecule Activators of Apaf-1 in a Fluorescent assay - set 2.; type: functional; settings: read-out: EC50_Mean
T1 sequence (O14727 whole entry): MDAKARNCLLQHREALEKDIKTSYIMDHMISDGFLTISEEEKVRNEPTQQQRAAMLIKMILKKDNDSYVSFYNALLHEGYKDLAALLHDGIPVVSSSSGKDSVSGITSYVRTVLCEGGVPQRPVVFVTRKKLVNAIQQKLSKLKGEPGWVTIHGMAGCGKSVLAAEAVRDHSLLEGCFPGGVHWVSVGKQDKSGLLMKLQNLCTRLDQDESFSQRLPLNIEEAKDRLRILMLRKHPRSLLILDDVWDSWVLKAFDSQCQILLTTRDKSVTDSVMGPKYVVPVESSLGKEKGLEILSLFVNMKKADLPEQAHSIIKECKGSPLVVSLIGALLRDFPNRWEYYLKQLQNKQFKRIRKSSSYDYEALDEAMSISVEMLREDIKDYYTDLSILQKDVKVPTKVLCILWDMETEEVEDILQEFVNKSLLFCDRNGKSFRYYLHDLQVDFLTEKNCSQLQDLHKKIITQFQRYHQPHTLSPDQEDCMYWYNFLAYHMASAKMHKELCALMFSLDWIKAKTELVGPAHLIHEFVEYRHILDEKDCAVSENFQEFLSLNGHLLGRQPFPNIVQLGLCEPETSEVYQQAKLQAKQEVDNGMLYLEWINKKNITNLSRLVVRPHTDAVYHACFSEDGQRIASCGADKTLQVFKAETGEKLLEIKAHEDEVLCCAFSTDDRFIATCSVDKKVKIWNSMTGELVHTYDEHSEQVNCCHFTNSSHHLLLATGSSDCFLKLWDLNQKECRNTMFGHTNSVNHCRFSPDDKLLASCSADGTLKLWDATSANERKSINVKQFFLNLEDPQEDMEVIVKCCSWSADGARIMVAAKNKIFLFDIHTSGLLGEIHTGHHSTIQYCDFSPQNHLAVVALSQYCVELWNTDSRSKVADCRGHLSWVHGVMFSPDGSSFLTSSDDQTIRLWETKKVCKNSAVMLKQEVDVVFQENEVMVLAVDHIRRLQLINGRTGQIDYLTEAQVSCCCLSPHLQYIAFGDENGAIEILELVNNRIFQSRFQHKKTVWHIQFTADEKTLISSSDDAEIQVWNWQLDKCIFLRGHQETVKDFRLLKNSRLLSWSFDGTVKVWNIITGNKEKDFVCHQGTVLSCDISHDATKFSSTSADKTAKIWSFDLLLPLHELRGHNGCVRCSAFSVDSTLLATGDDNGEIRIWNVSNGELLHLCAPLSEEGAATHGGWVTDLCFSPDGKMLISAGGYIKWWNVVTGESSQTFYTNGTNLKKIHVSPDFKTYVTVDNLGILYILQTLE

[2] = SAR analysis of small molecule activators of Apaf-1 using a LZ-Caspase-9/Caspase-3 Fluorescent Selectivity assay - Set 2.; type: functional; settings: read-out: EC50_Mean
Aurora kinase A = Aurora kinase A (Homo sapiens, UniProt O14965); type: functional;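 further: value from the Navigating the Kinome kinase panel profiling, panel entry STK6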
[3] = target: Calcium/calmodulin-dependent protein kinase type II subunit alpha (Homo sapiens, UniProt Q9UQM7); assay: Navigating the Kinome. Panel member name: CAMK2A; type: functional
[4] = target: Tyrosine-protein kinase JAK2 (Homo sapiens, UniProt O60674); type: functional;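 further: JAK2 tested as one member of a kinase panel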
[5] = target: Proto-oncogene tyrosine-protein kinase receptor Ret (Homo sapiens, UniProt P07949); type: functional;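 further: measured within a kinome-wide profiling panel, RET as the panel member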
[6] = target: Mitogen-activated protein kinase 9 (Homo sapiens, UniProt P45984); type: functional;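 further: value from a kinome panel profiling assay, MAPK9 panel entry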
[7] = target: Cyclin-dependent kinase 5 (Homo sapiens, UniProt Q00535); type: functional;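 further: CDK5 measured as one member of a kinase profiling panel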
[8] = target: Fibroblast growth factor receptor 1 (Homo sapiens, UniProt P11362); type: functional
[9] = target: Leucine-rich repeat serine/threonine-protein kinase 2 (Homo sapiens, UniProt Q5S007); type: functional;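 further: value from a broad kinome-wide panel profiling study in which LRRK2 was one of the kinases tested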
[10] = target: Cyclin-dependent kinase 7 (Homo sapiens, UniProt P50613); type: functional;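 further: value comes from a kinome-wide kinase profiling panel in which CDK7 is one member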
[11] = target: Serine/threonine-protein kinase TAO1 (Homo sapiens, UniProt Q7L7X3); type: functional
[12] = target: Mitogen-activated protein kinase kinase kinase kinase 2 (Homo sapiens, UniProt Q12851); type: functional;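 further: measured as one member of a kinome-wide kinase panel, with MAP4K2 as the panel entry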
[13] = target: Cyclin-dependent kinase 8 (Homo sapiens, UniProt P49336); assay: Navigating the Kinome. Panel member name: CDK8; type: functional
[14] = target: Dual specificity mitogen-activated protein kinase kinase 2 (Homo sapiens, UniProt P36507); assay: Navigating the Kinome. Panel member name: MAP2K2; type: functional
[15] = target: Protein kinase C theta type (Homo sapiens, UniProt Q04759); assay: Navigating the Kinome. Panel member name: PRKCQ; type: functional
[16] = target: Mitogen-activated protein kinase 14 (Homo sapiens, UniProt Q16539); type: functional;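 further: part of a kinome-wide panel, MAPK14 entry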
[17] = target: Tyrosine-protein kinase BTK (Homo sapiens, UniProt Q06187); type: functional
[18] = target: Dual specificity protein kinase CLK4 (Homo sapiens, UniProt Q9HAZ1); type: functional
[19] = target: cAMP-dependent protein kinase catalytic subunit alpha (Homo sapiens, UniProt P17612); type: functional
Activin receptor type-1 = Activin receptor type-1 (Homo sapiens, UniProt Q04771); assay: Navigating the Kinome. Panel member name: ACVR1; type: functional
[20] = target: Dual specificity mitogen-activated protein kinase kinase 1 (Homo sapiens, UniProt Q02750); assay: Navigating the Kinome. Panel member name: MAP2K1; type: functional
[21] = target: Dual specificity tyrosine-phosphorylation-regulated kinase 1A (Homo sapiens, UniProt Q13627); type: functional;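 further: measured against DYRK1A as one member of a broad kinome profiling panel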
[22] = target: Ribosomal protein S6 kinase alpha-3 (Homo sapiens, UniProt P51812); type: functional;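 further: measured within a kinome-wide profiling panel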
[23] = target: Macrophage-stimulating protein receptor (Homo sapiens, UniProt Q04912); assay: Navigating the Kinome. Panel member name: MST1R; type: functional
[24] = target: Insulin-like growth factor 1 receptor (Homo sapiens, UniProt P08069); assay: Navigating the Kinome. Panel member name: IGF1R; type: functional
[25] = target: cAMP-dependent protein kinase catalytic subunit PRKX (Homo sapiens, UniProt P51817); type: functional
[26] = target: Serine/threonine-protein kinase D3 (Homo sapiens, UniProt O94806); type: functional;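 further: determined within a kinase panel screen, with PRKCN as the panel member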
[27] = target: Tyrosine-protein kinase Lck (Homo sapiens, UniProt P06239); type: functional;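 further: lck was assayed as one member of a kinase panel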
[28] = target: G protein-coupled receptor kinase 5 (Homo sapiens, UniProt P34947); assay: Navigating the Kinome. Panel member name: GPRK5; type: functional
[29] = target: Cyclin-dependent kinase 9 (Homo sapiens, UniProt P50750); type: functional;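 further: value from the CDK9 entry of a kinome-spanning kinase panel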
[30] = target: Tyrosine-protein kinase ABL1 (Homo sapiens, UniProt P00519); type: functional
Activated CDC42 kinase 1 = Activated CDC42 kinase 1 (Homo sapiens, UniProt Q07912); assay: Navigating the Kinome. Panel member name: ACK1; type: functional
[31] = target: Tyrosine-protein kinase receptor TYRO3 (Homo sapiens, UniProt Q06418); type: functional;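 further: TYRO3 value obtained as one member of a kinome-wide profiling panel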
[32] = target: 5'-AMP-activated protein kinase catalytic subunit alpha-1 (Homo sapiens, UniProt Q13131); type: functional
[33] = target: Vascular endothelial growth factor receptor 1 (Homo sapiens, UniProt P17948); type: functional;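 further: measured within a kinome-wide profiling panel, FLT1 as the panel member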
[34] = target: Platelet-derived growth factor receptor alpha (Homo sapiens, UniProt P16234); assay: Navigating the Kinome. Panel member name: PDGFRA; type: functional
[35] = target: BDNF/NT-3 growth factors receptor (Homo sapiens, UniProt Q16620); type: functional;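 further: NTRK2 measured as one member of a broad kinome-wide kinase profiling panel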
[36] = target: Inhibitor of nuclear factor kappa-B kinase subunit epsilon (Homo sapiens, UniProt Q14164); assay: Navigating the Kinome. Panel member name: IKBKE; type: functional
[37] = target: Tyrosine-protein kinase Fyn (Homo sapiens, UniProt P06241); type: functional
[38] = target: Tyrosine-protein kinase JAK3 (Homo sapiens, UniProt P52333); type: functional
[39] = target: T2, Glycogen synthase kinase-3 beta (Homo sapiens, UniProt P49841); type: functional;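 further: value comes from a broad kinome profiling panel, with GSK3B as the panel member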
[40] = target: T3, Glycogen synthase kinase-3 alpha (Homo sapiens, UniProt P49840); type: functional;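 further: GSK3A result taken from a broad kinome-wide kinase panel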
[41] = target: Mitogen-activated protein kinase kinase kinase kinase 4 (Homo sapiens, UniProt O95819); type: functional
[42] = target: Serine/threonine-protein kinase TBK1 (Homo sapiens, UniProt Q9UHD2); assay: Navigating the Kinome. Panel member name: TBK1; type: functional
[43] = target: Dual specificity tyrosine-phosphorylation-regulated kinase 1B (Homo sapiens, UniProt Q9Y463); assay: Navigating the Kinome. Panel member name: DYRK1B; type: functional
[44] = target: ALK tyrosine kinase receptor (Homo sapiens, UniProt Q9UM73); type: functional;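 further: ALK tested as one member of a kinase panel screen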
[45] = target: Dual specificity protein kinase CLK2 (Homo sapiens, UniProt P49760); type: functional
[46] = target: Death-associated protein kinase 3 (Homo sapiens, UniProt O43293); type: functional;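 further: measured as one member of a kinome-wide profiling panel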
[47] = target: Serine/threonine-protein kinase PAK 4 (Homo sapiens, UniProt O96013); type: functional;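 further: value obtained within a kinome profiling panel in which PAK4 was one of the panel members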
[48] = target: Rho-associated protein kinase 1 (Homo sapiens, UniProt Q13464); type: functional;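 further: measured within a broad kinome-wide panel profiling many kinases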
[49] = target: Receptor-type tyrosine-protein kinase FLT3 (Homo sapiens, UniProt P36888); type: functional;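 further: FLT3 was tested as one member of a kinome-wide kinase panel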
[50] = target: Serine/threonine-protein kinase N2 (Homo sapiens, UniProt Q16513); type: functional
[51] = target: Mitogen-activated protein kinase 8 (Homo sapiens, UniProt P45983); type: functional;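 further: value comes from one member of a kinome-wide kinase profiling panel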
[52] = target: Leukocyte tyrosine kinase receptor (Homo sapiens, UniProt P29376); assay: Navigating the Kinome. Panel member name: LTK; type: functional
[53] = target: Vascular endothelial growth factor receptor 2 (Homo sapiens, UniProt P35968); type: functional
[54] = target: Serine/threonine-protein kinase pim-1 (Homo sapiens, UniProt P11309); type: functional
[55] = target: Macrophage colony-stimulating factor 1 receptor (Homo sapiens, UniProt P07333); type: functional;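 further: value comes from the Navigating the Kinome screening panel, CSF1R member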
[56] = target: Cyclin-dependent kinase 5/CDK5 activator 1 (Homo sapiens, UniProt Q00535); assay: inhibitors of human CDK5 activity – biochemical, microfluidic mobility shift, dry powder, set 2, selectivity assay for GSK3beta inhibitor project, dose response (AID 623979); type: functional
[57] = target: T3, Glycogen synthase kinase-3 alpha; assay: GSK3A enzyme blockers, homolog specificity check – biochemical, microfluidics, dry powder samples, set 2, selectivity assay for GSK3beta inhibitor project, dose response (AID 623978); type: functional
[58] = target: T2, Glycogen synthase kinase-3 beta; assay: inhibition of human GSK3B activity – biochemical, microfluidics, dry powder samples, set 2, dose response (AID 623989); type: functional
[59] = target: FAD-linked sulfhydryl oxidase ALR (Homo sapiens, UniProt P55789); assay: ALR-catalysed DTT oxidation blockers – biochemical, H2O2 detection, luminescence, cherry-pick, dose response (AID 493248)

T2 sequence (P49841 whole entry): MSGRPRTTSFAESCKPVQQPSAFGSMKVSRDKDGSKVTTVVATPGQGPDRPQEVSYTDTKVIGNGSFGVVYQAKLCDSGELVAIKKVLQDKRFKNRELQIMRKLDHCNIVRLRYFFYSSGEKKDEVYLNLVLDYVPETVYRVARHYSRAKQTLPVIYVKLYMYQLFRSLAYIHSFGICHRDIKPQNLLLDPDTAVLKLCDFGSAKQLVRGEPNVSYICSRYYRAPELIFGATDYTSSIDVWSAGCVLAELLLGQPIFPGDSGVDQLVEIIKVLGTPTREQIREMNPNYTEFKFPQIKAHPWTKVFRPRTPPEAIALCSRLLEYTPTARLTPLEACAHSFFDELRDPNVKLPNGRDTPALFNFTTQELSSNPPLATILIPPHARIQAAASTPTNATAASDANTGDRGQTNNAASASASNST
T3 sequence (P49840 whole entry): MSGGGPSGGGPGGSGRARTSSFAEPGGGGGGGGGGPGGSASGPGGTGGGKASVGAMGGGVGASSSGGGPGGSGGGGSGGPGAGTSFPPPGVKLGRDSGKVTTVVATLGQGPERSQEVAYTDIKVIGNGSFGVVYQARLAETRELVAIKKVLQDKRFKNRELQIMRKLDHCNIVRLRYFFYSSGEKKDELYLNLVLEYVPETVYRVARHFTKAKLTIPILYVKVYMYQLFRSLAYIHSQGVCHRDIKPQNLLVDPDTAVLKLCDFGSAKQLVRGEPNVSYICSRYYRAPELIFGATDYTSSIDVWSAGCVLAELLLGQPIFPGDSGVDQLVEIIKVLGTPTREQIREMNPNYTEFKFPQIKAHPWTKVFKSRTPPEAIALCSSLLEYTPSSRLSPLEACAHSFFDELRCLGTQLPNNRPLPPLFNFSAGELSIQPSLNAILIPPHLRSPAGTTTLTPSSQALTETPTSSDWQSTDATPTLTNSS
Chain of Dual specificity tyrosine-phosphorylation-regulated kinase 1B (Q9Y463 whole entry): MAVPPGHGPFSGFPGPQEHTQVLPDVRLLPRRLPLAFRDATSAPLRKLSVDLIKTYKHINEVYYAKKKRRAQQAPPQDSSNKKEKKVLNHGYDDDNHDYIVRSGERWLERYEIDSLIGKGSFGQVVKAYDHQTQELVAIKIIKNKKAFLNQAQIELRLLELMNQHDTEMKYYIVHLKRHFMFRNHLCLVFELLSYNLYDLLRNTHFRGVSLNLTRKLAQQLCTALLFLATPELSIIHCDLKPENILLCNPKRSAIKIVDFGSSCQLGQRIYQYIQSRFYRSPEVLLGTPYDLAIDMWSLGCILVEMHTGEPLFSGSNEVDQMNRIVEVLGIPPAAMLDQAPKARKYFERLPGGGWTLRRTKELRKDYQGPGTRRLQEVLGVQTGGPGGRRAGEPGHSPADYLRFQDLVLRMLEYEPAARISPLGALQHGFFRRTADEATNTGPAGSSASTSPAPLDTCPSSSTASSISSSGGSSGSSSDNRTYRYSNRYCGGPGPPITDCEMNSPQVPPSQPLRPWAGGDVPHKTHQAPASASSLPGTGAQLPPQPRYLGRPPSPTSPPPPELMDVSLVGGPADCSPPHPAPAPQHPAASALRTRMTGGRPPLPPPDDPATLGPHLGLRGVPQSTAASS
Chain of G protein-coupled receptor kinase 5 (P34947 whole entry): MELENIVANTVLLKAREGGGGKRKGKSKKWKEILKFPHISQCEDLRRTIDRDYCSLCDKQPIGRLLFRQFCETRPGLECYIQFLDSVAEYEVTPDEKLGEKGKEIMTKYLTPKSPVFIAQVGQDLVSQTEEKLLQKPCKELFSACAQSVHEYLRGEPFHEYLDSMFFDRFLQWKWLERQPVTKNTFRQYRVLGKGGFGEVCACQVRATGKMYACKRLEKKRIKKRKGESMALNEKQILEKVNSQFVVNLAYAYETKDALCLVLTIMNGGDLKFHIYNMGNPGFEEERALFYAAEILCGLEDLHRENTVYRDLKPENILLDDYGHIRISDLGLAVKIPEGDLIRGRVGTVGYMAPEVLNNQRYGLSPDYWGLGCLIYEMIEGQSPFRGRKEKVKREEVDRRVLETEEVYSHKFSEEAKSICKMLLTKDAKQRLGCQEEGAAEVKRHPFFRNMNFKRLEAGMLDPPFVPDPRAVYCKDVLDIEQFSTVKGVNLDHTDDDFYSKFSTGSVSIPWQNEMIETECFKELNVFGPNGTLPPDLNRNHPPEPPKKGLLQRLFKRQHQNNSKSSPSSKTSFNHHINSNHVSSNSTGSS
Chain of 5'-AMP-activated protein kinase catalytic subunit alpha-1 (Q13131 whole entry): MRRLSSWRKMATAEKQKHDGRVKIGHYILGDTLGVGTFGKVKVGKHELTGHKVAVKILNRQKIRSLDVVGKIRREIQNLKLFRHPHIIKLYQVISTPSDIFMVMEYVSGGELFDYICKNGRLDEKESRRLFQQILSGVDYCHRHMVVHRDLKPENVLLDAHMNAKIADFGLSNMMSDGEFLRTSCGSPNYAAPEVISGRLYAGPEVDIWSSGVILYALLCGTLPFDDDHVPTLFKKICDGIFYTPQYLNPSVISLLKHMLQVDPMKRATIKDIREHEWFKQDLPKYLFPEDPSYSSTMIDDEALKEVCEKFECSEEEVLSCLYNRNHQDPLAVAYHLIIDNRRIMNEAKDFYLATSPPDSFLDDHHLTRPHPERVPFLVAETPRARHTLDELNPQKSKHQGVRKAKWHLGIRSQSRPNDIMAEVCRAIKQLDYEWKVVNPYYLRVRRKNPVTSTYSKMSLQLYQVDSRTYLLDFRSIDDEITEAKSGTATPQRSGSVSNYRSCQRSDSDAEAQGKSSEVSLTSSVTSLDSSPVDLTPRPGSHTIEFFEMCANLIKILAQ
Chain of Cyclin-dependent kinase 8 (P49336 whole entry): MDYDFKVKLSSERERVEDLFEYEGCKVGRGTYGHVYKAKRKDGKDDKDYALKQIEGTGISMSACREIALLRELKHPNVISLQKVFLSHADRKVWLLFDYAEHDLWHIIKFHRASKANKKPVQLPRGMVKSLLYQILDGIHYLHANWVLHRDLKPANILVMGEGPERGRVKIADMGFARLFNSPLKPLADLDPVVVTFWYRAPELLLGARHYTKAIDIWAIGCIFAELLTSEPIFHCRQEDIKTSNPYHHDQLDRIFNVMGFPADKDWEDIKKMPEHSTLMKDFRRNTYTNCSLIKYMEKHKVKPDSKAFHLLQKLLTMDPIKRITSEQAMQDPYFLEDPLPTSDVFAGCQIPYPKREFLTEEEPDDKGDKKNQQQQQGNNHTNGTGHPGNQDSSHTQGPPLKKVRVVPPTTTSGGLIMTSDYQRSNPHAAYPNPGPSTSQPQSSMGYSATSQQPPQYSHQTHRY
Chain of Inhibitor of nuclear factor kappa-B kinase subunit epsilon (Q14164 whole entry): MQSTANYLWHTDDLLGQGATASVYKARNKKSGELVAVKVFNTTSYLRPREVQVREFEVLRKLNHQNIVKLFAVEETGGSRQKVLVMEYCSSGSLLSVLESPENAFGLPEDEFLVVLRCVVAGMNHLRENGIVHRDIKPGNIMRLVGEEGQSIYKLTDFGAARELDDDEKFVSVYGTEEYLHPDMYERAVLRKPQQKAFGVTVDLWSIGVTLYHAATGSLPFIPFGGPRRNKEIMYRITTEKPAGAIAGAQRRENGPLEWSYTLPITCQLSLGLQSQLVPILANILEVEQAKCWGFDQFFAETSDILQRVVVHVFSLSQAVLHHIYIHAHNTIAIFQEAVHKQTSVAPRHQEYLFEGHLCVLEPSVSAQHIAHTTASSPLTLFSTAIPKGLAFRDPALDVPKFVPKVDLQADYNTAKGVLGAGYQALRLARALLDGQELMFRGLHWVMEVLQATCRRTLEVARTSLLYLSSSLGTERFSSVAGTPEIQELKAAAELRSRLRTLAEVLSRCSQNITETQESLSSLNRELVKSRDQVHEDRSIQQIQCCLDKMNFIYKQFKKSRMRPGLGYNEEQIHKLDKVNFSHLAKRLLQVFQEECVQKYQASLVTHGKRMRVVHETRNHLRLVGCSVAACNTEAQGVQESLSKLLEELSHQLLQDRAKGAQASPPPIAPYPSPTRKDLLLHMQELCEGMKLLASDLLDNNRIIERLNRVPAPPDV
Chain of Proto-oncogene tyrosine-protein kinase receptor Ret (P07949 whole entry): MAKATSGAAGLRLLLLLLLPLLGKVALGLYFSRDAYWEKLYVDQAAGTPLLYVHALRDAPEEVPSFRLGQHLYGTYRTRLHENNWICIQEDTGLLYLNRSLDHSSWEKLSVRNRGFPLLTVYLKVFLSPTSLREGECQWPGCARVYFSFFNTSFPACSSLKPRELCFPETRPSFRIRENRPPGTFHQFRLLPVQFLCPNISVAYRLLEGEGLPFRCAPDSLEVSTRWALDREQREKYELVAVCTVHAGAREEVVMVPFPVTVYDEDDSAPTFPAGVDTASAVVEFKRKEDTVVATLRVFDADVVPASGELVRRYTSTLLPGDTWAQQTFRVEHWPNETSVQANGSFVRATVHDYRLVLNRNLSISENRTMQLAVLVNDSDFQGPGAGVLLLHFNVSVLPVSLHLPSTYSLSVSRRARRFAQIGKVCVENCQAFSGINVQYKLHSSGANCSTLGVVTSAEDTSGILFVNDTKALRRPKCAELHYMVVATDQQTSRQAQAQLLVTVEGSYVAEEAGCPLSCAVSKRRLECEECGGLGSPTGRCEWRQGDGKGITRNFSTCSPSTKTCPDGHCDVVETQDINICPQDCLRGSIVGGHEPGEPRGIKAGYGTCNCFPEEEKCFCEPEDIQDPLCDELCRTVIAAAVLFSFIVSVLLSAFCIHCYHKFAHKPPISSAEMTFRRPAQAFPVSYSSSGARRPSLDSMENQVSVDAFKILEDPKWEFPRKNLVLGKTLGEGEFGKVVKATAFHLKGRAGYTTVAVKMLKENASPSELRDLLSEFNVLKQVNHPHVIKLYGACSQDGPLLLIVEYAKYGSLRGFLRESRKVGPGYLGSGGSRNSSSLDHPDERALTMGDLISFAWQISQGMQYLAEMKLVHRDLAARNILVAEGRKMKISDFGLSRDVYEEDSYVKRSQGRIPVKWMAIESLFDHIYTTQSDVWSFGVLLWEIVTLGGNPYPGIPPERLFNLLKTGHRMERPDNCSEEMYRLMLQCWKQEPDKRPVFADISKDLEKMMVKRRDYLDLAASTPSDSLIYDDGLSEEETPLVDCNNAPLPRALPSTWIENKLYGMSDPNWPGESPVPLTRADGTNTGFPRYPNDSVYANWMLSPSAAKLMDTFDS

For `CC(Cn1nnc2ccccc21)C(=O)O` (configuration not stated), the EC50 [1] was 42.6 µM (active) and the EC50 [2] was > 100 µM (inactive).

For `CC1CCN(C(=O)CC#N)CC1c1ncc2cnc3[nH]ccc3n12` (configuration not stated), the Ki (Aurora kinase A) was > 1.58 µM (inactive), the Ki [3] was > 7.94 µM (inactive) and the Ki [4] was 0.794 nM (active). The Ki [5] was 2.51 µM (active), the Ki [6] was > 3.98 µM (inactive) and the Ki [7] was > 3.16 µM (inactive). The Ki [8] was > 3.98 µM (inactive), the Ki [9] was 316 nM (active) and the Ki [10] was > 3.98 µM (inactive). The Ki [11] was > 6.31 µM (inactive), the Ki [12] was > 2.51 µM (inactive) and the Ki [13] was > 3.16 µM (inactive). For the same molecule, the Ki [14] was > 3.98 µM (inactive), the Ki [15] was > 1.26 µM (inactive) and the Ki [16] was > 3.98 µM (inactive). The Ki [17] was > 6.31 µM (inactive), the Ki [18] was > 2.51 µM (inactive) and the Ki [19] was 501 nM (active). The Ki (Activin receptor type-1) was > 3.98 µM (inactive), the Ki [20] was > 3.16 µM (inactive) and the Ki [21] was > 2 µM (inactive). The Ki [22] was > 3.98 µM (inactive), the Ki [23] was > 2.51 µM (inactive) and the Ki [24] was > 2.51 µM (inactive). For the same molecule, the Ki [25] was 316 nM (active), the Ki [26] was > 3.98 µM (inactive) and the Ki [27] was 2.51 µM (active). For the same molecule, the Ki [28] was > 3.98 µM (inactive), the Ki [29] was > 1.58 µM (inactive) and the Ki [30] was > 3.98 µM (inactive). The Ki (Activated CDC42 kinase 1) was > 3.16 µM (inactive), the Ki [31] was > 3.16 µM (inactive) and the Ki [32] was > 3.16 µM (inactive). For the same molecule, the Ki [33] was > 3.98 µM (inactive), the Ki [34] was > 2.51 µM (inactive) and the Ki [35] was > 3.98 µM (inactive). The Ki [36] was > 3.16 µM (inactive), the Ki [37] was > 6.31 µM (inactive) and the Ki [38] was 3.16 nM (active). For the same molecule, the Ki [39] was > 3.98 µM (inactive), the Ki [40] was 2.51 µM (active) and the Ki [41] was > 5.01 µM (inactive). For the same molecule, the Ki [42] was > 3.16 µM (inactive), the Ki [43] was > 2.51 µM (inactive) and the Ki [44] was > 6.31 µM (inactive). For the same molecule, the Ki [45] was > 3.98 µM (inactive), the Ki [46] was > 5.01 µM (inactive) and the Ki [47] was > 5.01 µM (inactive). For the same molecule, the Ki [48] was 25.1 nM (active), the Ki [49] was > 3.16 µM (inactive) and the Ki [50] was 316 nM (active). For the same molecule, the Ki [51] was > 2.51 µM (inactive), the Ki [52] was 1 µM (active) and the Ki [53] was 1.26 µM (active). For the same molecule, the Ki [54] was > 6.31 µM (inactive) and the Ki [55] was > 2.51 µM (inactive).

In the case of `COc1ccc(S(=O)(=O)Nc2c(C(=O)O)[nH]c3ccc(OC)cc23)cc1`, the AC50 [56] is reported as 3.7 µM (active), the AC50 [57] is reported as 5.47 µM (active) and the AC50 [58] is reported as 1.46 µM (active). The AC50 [59] was 2.51 µM (active).
